# Reference: ChEMBL document CHEMBL5393442, “Combined inhibition of amino acid transporters for inhibiting human plasmacytoid dendritic cell activity during autoimmunity” (2022)
# Active and inactive are the calls of the source. The calls are words filed in the database; no cut-off is given here.
# How the values were obtained:
# mTORC1 (Homo sapiens) [1] = molecular target: T1, mTORC1 (Homo sapiens) (UniProt P42345+Q8N122+Q9BVC4); settings: Plasmacytoid dendritic cell, dose 250.0 nM
# Description: Inhibition of mTORC1 in CpG-A-stimulated human plasmacytoid dendritic cells at 250 nM assessed as decrease in lactate release
# [2] = molecular target: Tyrosine-protein kinase JAK2 (Homo sapiens) (UniProt O60674); experiment: Inhibition of JAK2 in IL3- and CpG-A-activated human plasmacytoid dendritic cells at 20 nM assessed as decrease in ENPP2/IFNA2 expression; type: cell-based; settings: Plasmacytoid dendritic cell
# Chain of Tyrosine-protein kinase JAK2 (Homo sapiens) (O60674 whole entry): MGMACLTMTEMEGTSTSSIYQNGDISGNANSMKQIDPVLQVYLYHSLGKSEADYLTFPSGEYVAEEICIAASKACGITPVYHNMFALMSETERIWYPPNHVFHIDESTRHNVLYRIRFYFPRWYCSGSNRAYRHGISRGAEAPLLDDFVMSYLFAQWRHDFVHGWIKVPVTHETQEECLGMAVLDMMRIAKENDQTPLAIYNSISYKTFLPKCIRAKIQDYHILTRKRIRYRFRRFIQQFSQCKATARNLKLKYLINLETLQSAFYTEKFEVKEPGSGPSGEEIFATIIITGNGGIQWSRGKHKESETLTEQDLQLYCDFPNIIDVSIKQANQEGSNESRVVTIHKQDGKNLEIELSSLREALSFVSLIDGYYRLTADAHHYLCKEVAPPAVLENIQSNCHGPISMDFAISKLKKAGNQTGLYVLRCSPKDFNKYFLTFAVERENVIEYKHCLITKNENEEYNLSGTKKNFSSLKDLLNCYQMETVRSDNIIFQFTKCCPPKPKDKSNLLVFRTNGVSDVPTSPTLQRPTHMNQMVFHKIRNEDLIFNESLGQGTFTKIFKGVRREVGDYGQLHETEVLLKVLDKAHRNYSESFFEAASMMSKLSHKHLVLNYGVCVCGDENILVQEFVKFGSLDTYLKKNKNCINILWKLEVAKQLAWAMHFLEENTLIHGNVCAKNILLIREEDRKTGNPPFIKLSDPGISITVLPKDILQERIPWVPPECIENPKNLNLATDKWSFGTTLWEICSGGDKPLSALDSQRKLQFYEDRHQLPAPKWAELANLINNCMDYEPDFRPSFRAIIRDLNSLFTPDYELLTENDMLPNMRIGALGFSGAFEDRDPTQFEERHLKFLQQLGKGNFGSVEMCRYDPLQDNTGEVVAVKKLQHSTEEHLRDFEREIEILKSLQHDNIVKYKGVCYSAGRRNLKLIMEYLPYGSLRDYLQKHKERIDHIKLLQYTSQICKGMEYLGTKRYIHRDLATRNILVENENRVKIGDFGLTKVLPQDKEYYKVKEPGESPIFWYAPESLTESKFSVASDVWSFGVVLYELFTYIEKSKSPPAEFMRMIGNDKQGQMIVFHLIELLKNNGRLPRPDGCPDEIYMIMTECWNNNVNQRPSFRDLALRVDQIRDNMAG
# mTORC1 (Homo sapiens) [3] = molecular target: T1, mTORC1 (Homo sapiens); settings: Plasmacytoid dendritic cell, dose 20.0 nM
# Description: Inhibition of mTORC1 in CpG-A-stimulated human plasmacytoid dendritic cells at 20 nM assessed as decrease in lactate release
# [4] = molecular target: Tyrosine-protein kinase JAK2 (Homo sapiens) (UniProt O60674); experiment: Inhibition of JAK2 in IL3- and CpG-A-activated human plasmacytoid dendritic cells at 20 nM assessed as decrease in MYO1E/IFNA2 expression; type: cell-based; settings: Plasmacytoid dendritic cell
# [5] = molecular target: Tyrosine-protein kinase JAK2 (Homo sapiens) (UniProt O60674); experiment: Inhibition of JAK2 in TLR9-activated human plasmacytoid dendritic cells at 20 nM assessed as decrease in CpG-A stimulated SLC7A11 expression; type: cell-based; settings: Plasmacytoid dendritic cell
# [6] = molecular target: T2, Cystine/glutamate transporter (Homo sapiens, UniProt Q9UPY5); experiment: Inhibition of XCT (unknown origin)
# T2 sequence (Q9UPY5 whole entry): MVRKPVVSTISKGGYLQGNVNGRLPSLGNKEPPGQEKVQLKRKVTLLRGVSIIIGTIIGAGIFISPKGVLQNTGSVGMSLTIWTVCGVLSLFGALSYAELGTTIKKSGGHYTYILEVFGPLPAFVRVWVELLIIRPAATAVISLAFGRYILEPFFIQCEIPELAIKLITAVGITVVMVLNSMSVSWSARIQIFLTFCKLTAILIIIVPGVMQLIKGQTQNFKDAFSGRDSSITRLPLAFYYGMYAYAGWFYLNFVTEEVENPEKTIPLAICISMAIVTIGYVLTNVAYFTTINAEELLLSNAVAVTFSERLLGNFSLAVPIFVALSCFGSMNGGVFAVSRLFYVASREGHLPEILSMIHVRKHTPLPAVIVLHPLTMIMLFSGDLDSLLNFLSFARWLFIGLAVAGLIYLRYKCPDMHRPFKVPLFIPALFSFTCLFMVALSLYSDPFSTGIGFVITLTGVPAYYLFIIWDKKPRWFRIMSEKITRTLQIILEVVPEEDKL
# [7] = tested on: Plasmacytoid dendritic cell; experiment: Inhibition of mTORC1/mTORC2 in TLR9-activated human plasmacytoid dendritic cells at 1 uM assessed as decrease in CpG-A stimulated SLC7A11 expression; type: cell-based
# [8] = tested on: Plasmacytoid dendritic cell; experiment: Inhibition of mTORC1/mTORC2 in CpG-A and IL-3-activated human plasmacytoid dendritic cells at 200 ng/mL assessed as decrease in TNF production; type: cell-based
# [9] = tested on: Plasmacytoid dendritic cell; experiment: Inhibition of mTORC1/mTORC2 in IL-3 and CpG-A-activated human plasmacytoid dendritic cells at 200 nM assessed as decrease in decrease in MYO1E/IFNA2 expression; type: cell-based
# [10] = tested on: Plasmacytoid dendritic cell; experiment: Inhibition of mTORC1/mTORC2 in CpG-A and IL-3-activated human plasmacytoid dendritic cells at 200 ng/mL assessed as decrease in SLC3A2 expression; type: cell-based
# [11] = tested on: Plasmacytoid dendritic cell; experiment: Inhibition of mTORC1/mTORC2 in CpG-A and IL-3-activated human plasmacytoid dendritic cells at 200 ng/mL assessed as decrease in IFN-alpha production; type: cell-based
# [12] = tested on: Plasmacytoid dendritic cell; experiment: Inhibition of mTORC1/mTORC2 in CpG-A and IL-3-activated human plasmacytoid dendritic cells at 200 ng/mL assessed as decrease in SLC7A5 expression; type: cell-based
# [13] = tested on: Plasmacytoid dendritic cell; experiment: Inhibition of mTORC1/mTORC2 in IL-3 and CpG-A-activated human plasmacytoid dendritic cells at 200 nM assessed as decrease in decrease in ENPP2/IFNA2 expression; type: cell-based
# [14] = molecular target: T3, Cystine/glutamate transporter (Homo sapiens) (UniProt Q9UPY5); experiment: Inhibition of XCT in CpG-A-activated human plasmacytoid dendritic cells at 200 uM assessed as decrease in MYO1E expression; type: cell-based; settings: Plasmacytoid dendritic cell
# T3 sequence (whole entry): T2 sequence (Q9UPY5 whole entry)
# [15] = molecular target: T3, Cystine/glutamate transporter (Homo sapiens); experiment: Inhibition of XCT in CpG-A-activated human plasmacytoid dendritic cells at 200 uM assessed as decrease in ENPP2 expression; type: cell-based; settings: Plasmacytoid dendritic cell
# [16] = molecular target: T3, Cystine/glutamate transporter (Homo sapiens); experiment: Inhibition of XCT in CpG-A-activated human plasmacytoid dendritic cells at 200 uM assessed as decrease in S6 phosphorylation; type: cell-based; settings: Plasmacytoid dendritic cell
# [17] = molecular target: T3, Cystine/glutamate transporter (Homo sapiens); experiment: Inhibition of XCT in CpG-A-activated human plasmacytoid dendritic cells at 200 uM assessed as decrease in kynurenine uptake; type: cell-based; settings: Plasmacytoid dendritic cell
# [18] = molecular target: T3, Cystine/glutamate transporter (Homo sapiens); experiment: Inhibition of XCT in CpG-A-activated human plasmacytoid dendritic cells at 200 uM assessed as decrease in TNF production; type: cell-based; settings: Plasmacytoid dendritic cell
# [19] = molecular target: T3, Cystine/glutamate transporter (Homo sapiens); experiment: Inhibition of XCT in CpG-A-activated human plasmacytoid dendritic cells at 100 uM assessed as decrease in IFN-alpha production in presence of 25 to 100 uM baricitinib; type: cell-based; settings: Plasmacytoid dendritic cell
# [20] = molecular target: T3, Cystine/glutamate transporter (Homo sapiens); experiment: Inhibition of XCT in CpG-A-activated human plasmacytoid dendritic cells at 200 uM assessed as decrease in IFN-alpha production; type: cell-based; settings: Plasmacytoid dendritic cell
# [21] = molecular target: Tyrosine-protein kinase JAK2 (Homo sapiens) (UniProt O60674); experiment: Inhibition of JAK2 in CpG-A-activated human plasmacytoid dendritic cells at 100 uM assessed as decrease in TNF production in presence of 25 to 100 uM baricitinib; type: cell-based; settings: Plasmacytoid dendritic cell
# T1 sequence (Q8N122 whole entry, looked up, other chains not shown): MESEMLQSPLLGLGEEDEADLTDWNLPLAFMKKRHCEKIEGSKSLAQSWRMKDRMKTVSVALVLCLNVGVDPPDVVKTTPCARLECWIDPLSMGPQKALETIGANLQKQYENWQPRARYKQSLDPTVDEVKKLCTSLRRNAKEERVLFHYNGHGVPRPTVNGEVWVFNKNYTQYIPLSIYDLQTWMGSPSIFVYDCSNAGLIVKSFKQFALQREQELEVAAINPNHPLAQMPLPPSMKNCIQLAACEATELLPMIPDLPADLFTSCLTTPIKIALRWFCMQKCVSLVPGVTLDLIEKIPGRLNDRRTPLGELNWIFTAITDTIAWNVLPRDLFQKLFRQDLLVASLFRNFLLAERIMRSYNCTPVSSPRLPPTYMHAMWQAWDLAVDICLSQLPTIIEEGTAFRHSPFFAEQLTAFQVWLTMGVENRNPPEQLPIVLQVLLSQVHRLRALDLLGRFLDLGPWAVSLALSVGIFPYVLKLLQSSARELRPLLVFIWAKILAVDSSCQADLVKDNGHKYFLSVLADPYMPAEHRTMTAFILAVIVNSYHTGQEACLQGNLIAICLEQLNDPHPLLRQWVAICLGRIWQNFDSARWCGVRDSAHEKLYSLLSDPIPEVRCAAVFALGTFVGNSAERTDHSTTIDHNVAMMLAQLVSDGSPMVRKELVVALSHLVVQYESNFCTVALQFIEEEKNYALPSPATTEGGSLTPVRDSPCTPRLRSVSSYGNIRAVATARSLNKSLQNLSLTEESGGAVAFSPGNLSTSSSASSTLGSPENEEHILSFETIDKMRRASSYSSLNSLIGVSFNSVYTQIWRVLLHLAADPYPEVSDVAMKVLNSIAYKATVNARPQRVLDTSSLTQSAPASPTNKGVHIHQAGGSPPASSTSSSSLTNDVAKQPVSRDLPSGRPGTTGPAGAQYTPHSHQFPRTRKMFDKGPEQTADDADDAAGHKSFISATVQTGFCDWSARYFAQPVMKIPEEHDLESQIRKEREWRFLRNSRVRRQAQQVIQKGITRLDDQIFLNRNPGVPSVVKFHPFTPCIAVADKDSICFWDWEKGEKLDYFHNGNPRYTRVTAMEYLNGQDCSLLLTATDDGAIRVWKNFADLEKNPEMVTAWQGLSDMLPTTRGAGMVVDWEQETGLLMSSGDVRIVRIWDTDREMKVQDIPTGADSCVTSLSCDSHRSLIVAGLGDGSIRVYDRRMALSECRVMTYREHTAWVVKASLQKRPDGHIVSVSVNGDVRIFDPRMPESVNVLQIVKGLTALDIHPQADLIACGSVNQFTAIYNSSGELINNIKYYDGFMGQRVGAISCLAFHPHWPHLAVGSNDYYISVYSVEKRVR
# T1 sequence (Q9BVC4 whole entry, looked up, other chains not shown): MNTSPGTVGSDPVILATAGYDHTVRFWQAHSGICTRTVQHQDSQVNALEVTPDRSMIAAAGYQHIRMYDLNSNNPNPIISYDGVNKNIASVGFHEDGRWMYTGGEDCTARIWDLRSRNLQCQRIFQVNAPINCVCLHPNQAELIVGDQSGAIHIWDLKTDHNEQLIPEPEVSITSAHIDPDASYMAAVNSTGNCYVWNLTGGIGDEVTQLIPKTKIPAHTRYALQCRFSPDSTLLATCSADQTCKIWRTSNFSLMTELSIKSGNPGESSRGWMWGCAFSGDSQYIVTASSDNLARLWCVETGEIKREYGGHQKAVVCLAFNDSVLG
compound,measurement,setting,value
CO[C@H]1CC2CC[C@@H](C)[C@@](O)(O2)C(=O)C(=O)N2CCCC[C@H]2C(=O)O[C@H]([C@H](C)C[C@@H]2CC[C@@H](O)[C@H](OC)C2)CC(=O)[C@H](C)/C=C(\C)[C@@H](O)[C@@H](OC)C(=O)[C@H](C)C[C@H](C)/C=C/C=C/C=C/1C,inhibition,mTORC1 (Homo sapiens) [1],Active
same,inhibition,[2],Active
same,inhibition,mTORC1 (Homo sapiens) [3],Active
same,inhibition,[4],Active
same,inhibition,[5],Active
Nc1c(/N=N/c2ccc(I)cc2)cc(S(=O)(=O)O)c2ccccc12,IC50,[6],14 µM
Cc1cc(Nc2nc(N[C@@H](C)c3ncc(F)cn3)ncc2Cl)[nH]n1,inhibition,[7],Active
Nc1c(/N=N/c2ccc(Oc3ccc(/N=N/c4cc(S(=O)(=O)O)c5ccccc5c4N)cc3)cc2)cc(S(=O)(=O)O)c2ccccc12,IC50,[6],11 µM
CCC(=O)N1CCN(c2ccc(-n3c(=O)ccc4cnc5ccc(-c6cnc7ccccc7c6)cc5c43)cc2C(F)(F)F)CC1,inhibition,[8],Active
same,inhibition,[9],Active
same,inhibition,[7],Active
same,inhibition,[10],Active
same,inhibition,[11],Active
same,inhibition,[12],Active
same,inhibition,[13],Active
Nc1c(/N=N/c2ccc(SSc3ccc(/N=N/c4cc(S(=O)(=O)O)c5ccccc5c4N)cc3)cc2)cc(S(=O)(=O)O)c2ccccc12,IC50,[6],4.3 µM
O=C(O)c1cc(/N=N/c2ccc(S(=O)(=O)Nc3ccccn3)cc2)ccc1O [SULFASALAZINE],inhibition,[14],Active
same,inhibition,[15],Active
same,inhibition,[16],Active
same,inhibition,[17],Active
same,IC50,[6],10.4 µM
same,inhibition,[18],Active
same,inhibition,[19],Active
same,inhibition,[20],Active
same,inhibition,[21],Active
Nc1ccc(/N=N/c2ccc(-c3ccc(/N=N/c4ccc(N)c5ccc(S(=O)(=O)O)cc45)cc3)cc2)c2cc(S(=O)(=O)O)ccc12,IC50,[6],4.3 µM
